Measured values as given in US20100204265A1 (priority 2009, published 2010).

What follows are molecules tested on ET (Huh-lucubineo-ET) cell line harboring I389luc-ubi-neo/NS3-3′/ET HCV replicon (assay: Replicon assay (HCV replicon, luciferase readout)). Conditions: Hepatitis C virus.
Type: cell-based
Procedure, shortened: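 Compounds at 10-point 2-fold dilutions (overall 0.1 nM to […], 0.5% DMSO) were applied to ET cells carrying a luciferase-neo HCV replicon, seeded a day earlier. After 48-72 hours, luciferase-based % inhibition was fitted with a Hill equation for EC50, and parallel WST-1 readings gave TC50.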

First: O=C(c1nc2c(C(F)(F)F)cc(-c3ccoc3)cn2c1Cl)N1CC=C(c2ncccc2Cl)CC1 [Compound 202, (3-Chloro-3′,6′-dihydro-2′H-[2,4′]bipyridinyl-1′-yl)-(3-chloro-6-furan-3-yl-8-trifluoromethyl-imidazo[1,2-a]pyridin-2-yl)-methanone]
Second: O=C(c1nc2c(C(F)(F)F)cc(-c3ccoc3)cn2c1Cl)N1CC=C(c2ncccc2O)CC1 [Compound 201, (3-Chloro-6-furan-3-yl-8-trifluoromethyl-imidazo[1,2-a]pyridin-2-yl)-(3-hydroxy-3′,6′-dihydro-2′H-[2,4′]bipyridinyl-1′-yl)-methanone]
The EC50 of the first is 47-fold lower: 0.329 µM for the first, 15.3 µM for the second.

First: O=C(c1nc2c(C(F)(F)F)cc(-c3ccoc3)cn2c1Cl)N1CC=C(c2cncs2)C1 [Compound 106, (3-Chloro-6-furan-3-yl-8-trifluoromethyl-imidazo[1,2-a]pyridin-2-yl)-(3-thiazol-5-yl-2,5-dihydro-pyrrol-1-yl)-methanone]
Second: O=C(c1nc2c(C(F)(F)F)cc(-c3ccoc3)cn2c1Cl)N1CC=C(c2cc(F)ccn2)CC1 [Compound 209, (3-Chloro-6-furan-3-yl-8-trifluoromethyl-imidazo[1,2-a]pyridin-2-yl)-(4-fluoro-3′,6′-dihydro-2′H-[2,4′]bipyridinyl-1′-yl)-methanone]
The EC50 of the first is 4.5-fold lower: 0.0886 µM for the first, 0.399 µM for the second.

Compared with `O=C(c1nc2c(C(F)(F)F)cc(-c3ccoc3)cn2c1C1CC1)N1CC=C(c2ncccc2F)CC1` [Compound 149, (3-Cyclopropyl-6-furan-3-yl-8-trifluoromethyl-imidazo[1,2-a]pyridin-2-yl)-(3-fluoro-3′,6′-dihydro-2′H-[2,4′]bipyridinyl-1′-yl)-methanone], `CC(O)c1c(C(=O)N2CC=C(c3ncccc3F)CC2)nc2c(C(F)(F)F)cc(-c3ccoc3)cn12` (stereo not shown) [Compound 172, (3-Fluoro-3′,6′-dihydro-2′H-[2,4′]bipyridinyl-1′-yl)-[6-furan-3-yl-3-(1-hydroxy-ethyl)-8-trifluoromethyl-imidazo[1,2-a]pyridin-2-yl]-methanone] is 1.6-fold lower in EC50: 5.08 µM for the first, 3.11 µM for the second. The second is the more potent here.

Going from `O=C(c1nc2c(C(F)(F)F)cc(-c3ccoc3)cn2c1Cl)N1CCC(OCC2CC2)CC1` [Compound 175, (3-Chloro-6-furan-3-yl-8-trifluoromethyl-imidazo[1,2-a]pyridin-2-yl)-(4-cyclopropylmethoxy-piperidin-1-yl)-methanone] to `O=C(c1nc2c(C(F)(F)F)cc(-c3ccoc3)cn2c1Cl)N1CCC(NCC2CC2)CC1` [Compound 152, (3-Chloro-6-furan-3-yl-8-trifluoromethyl-imidazo[1,2-a]pyridin-2-yl)-[4-(cyclopropylmethyl-amino)-piperidin-1-yl]-methanone], the EC50 rises from 0.79 µM to 19 µM (24-fold).

Going from `N#Cc1cccnc1C1=CCN(C(=O)c2nc3c(C(F)(F)F)cc(-c4ccoc4)cn3c2Cl)CC1` [Compound 211, 1′-(3-Chloro-6-furan-3-yl-8-trifluoromethyl-imidazo[1,2-a]pyridine-2-carbonyl)-1′,2′,3′,6′-tetrahydro-[2,4′]bipyridinyl-3-carbonitrile] to `Cc1ccnc(C2=CCN(C(=O)c3nc4c(C(F)(F)F)cc(-c5ccoc5)cn4c3Cl)CC2)c1F` [Compound 206, (3-Chloro-6-furan-3-yl-8-trifluoromethyl-imidazo[1,2-a]pyridin-2-yl)-(3-fluoro-4-methyl-3′,6′-dihydro-2′H-[2,4′]bipyridinyl-1′-yl)-methanone], the EC50 rises from 1.48 µM to 5.95 µM (4-fold).

`N#CC1(c2ncccc2F)CCN(C(=O)c2nc3c(C(F)(F)F)cc(-c4ccoc4)cn3c2Cl)CC1` [Compound 220, 1′-(3-Chloro-6-furan-3-yl-8-trifluoromethyl-imidazo[1,2-a]pyridine-2-carbonyl)-3-fluoro-2′,3′,5′,6′-tetrahydro-1′H-[2,4′]bipyridinyl-4′-carbonitrile] and `O=C(c1nc2c(C(F)(F)F)cc(-c3ccoc3)cn2c1Cl)N1CCC(F)(c2ncccc2F)CC1` [Compound 223, (3-Chloro-6-furan-3-yl-8-trifluoromethyl-imidazo[1,2-a]pyridin-2-yl)-(3,4′-difluoro-3′,4′,5′,6′-tetrahydro-2′H-[2,4′]bipyridinyl-1′-yl)-methanone] are within 1.5-fold of each other in EC50: 0.777 µM for the first, 0.657 µM for the second.

First: O=C(c1nc2c(C(F)(F)F)cc(-c3cn[nH]c3)cn2c1Cl)N1CC=C(c2c[nH]cn2)C1 [Compound 104, [3-Chloro-6-(1H-pyrazol-4-yl)-8-trifluoromethyl-imidazo[1,2-a]pyridin-2-yl]-[3-(1H-imidazol-4-yl)-2,5-dihydro-pyrrol-1-yl]-methanone]
Second: O=C(c1nc2c(C(F)(F)F)cc(-c3cn[nH]c3)cn2c1CO)N1CC=C(c2nccs2)C1 [Compound 173, [3-Hydroxymethyl-6-(1H-pyrazol-4-yl)-8-trifluoromethyl-imidazo[1,2-a]pyridin-2-yl]-(3-thiazol-2-yl-2,5-dihydro-pyrrol-1-yl)-methanone]
The EC50 of the first is 13-fold higher: 5.96 µM for the first, 0.444 µM for the second.

Compared with `COC(=O)C(Cc1cnc[nH]1)NC(=O)c1cn2cc(-c3ccoc3)cc(C(F)(F)F)c2n1` (stereo not shown) [Compound 155, 2-[(6-Furan-3-yl-8-trifluoromethyl-imidazo[1,2-a]pyridine-2-carbonyl)-amino]-3-(3H-imidazol-4-yl)-propionic acid methyl ester], `COC(=O)C(CCSC)NC(=O)Cc1cn2cc(-c3ccoc3)cc(C(F)(F)F)c2n1` (stereo not shown) [Compound 291, 2-[2-(6-Furan-3-yl-8-trifluoromethyl-imidazo[1,2-a]pyridin-2-yl)-acetylamino]-4-methylsulfanyl-butyric acid methyl ester] is higher in EC50: 44.5 µM for the first, over 50 µM for the second.

`O=C(Cc1cccs1)NCCc1cn2cc(-c3ccoc3)cc(C(F)(F)F)c2n1` [Compound 274, N-[2-(6-Furan-3-yl-8-trifluoromethyl-imidazo[1,2-a]pyridin-2-yl)-ethyl]-2-thiophen-2-yl-acetamide] and `CC(C)(C)OC(=O)NCCc1cn2cc(-c3ccoc3)cc(C(F)(F)F)c2n1` [Compound 242, [2-(6-Furan-3-yl-8-trifluoromethyl-imidazo[1,2-a]pyridin-2-yl)-ethyl]-carbamic acid tert-butyl ester] cannot be ordered by EC50: over 50 µM for the first, over 50 µM for the second.

Going from `O=C(Cc1cn2cc(-c3ccoc3)cc(C(F)(F)F)c2n1)N1Cc2ccccc2C1` [Compound 113, 1-(1,3-Dihydro-isoindol-2-yl)-2-(6-furan-3-yl-8-trifluoromethyl-imidazo[1,2-a]pyridin-2-yl)-ethanone] to `O=C(Cc1cn2cc(-c3ccoc3)cc(C(F)(F)F)c2n1)N1CCCCC1c1ccccc1` (stereo not shown) [Compound 110, 2-(6-Furan-3-yl-8-trifluoromethyl-imidazo[1,2-a]pyridin-2-yl)-1-(2-phenyl-piperidin-1-yl)-ethanone], the EC50 rises from 8.63 µM to 49 µM (5.7-fold). The first is the more potent here.

`O=C(c1cn2cc(-c3coc(Br)c3)cc(C(F)(F)F)c2n1)N1CC(NS(=O)(=O)C2CC2)C1` [Compound 147, Cyclopropanesulfonic acid {1-[6-(5-bromo-furan-3-yl)-8-trifluoromethyl-imidazo[1,2-a]pyridine-2-carbonyl]-azetidin-3-yl}-amide] and `CS(=O)(=O)NC1CN(C(=O)c2cn3cc(-c4coc(Br)c4)cc(C(F)(F)F)c3n2)C1` [Compound 145, N-{1-[6-(5-Bromo-furan-3-yl)-8-trifluoromethyl-imidazo[1,2-a]pyridine-2-carbonyl]-azetidin-3-yl}-methanesulfonamide] are within 1.5-fold of each other in EC50: 3.99 µM for the first, 3.5 µM for the second.

Compared with `O=C(c1nc2c(C(F)(F)F)cc(-c3ccoc3)cn2c1Cl)N1CCC(N2CCCC2)CC1` [Compound 195, (3-Chloro-6-furan-3-yl-8-trifluoromethyl-imidazo[1,2-a]pyridin-2-yl)-(4-pyrrolidin-1-yl-piperidin-1-yl)-methanone], `O=C(c1nc2c(C(F)(F)F)cc(-c3ccoc3)cn2c1Cl)N1CCC(c2ccccc2F)C(O)C1` (stereo not shown) [Compound 102, (3-Chloro-6-furan-3-yl-8-trifluoromethyl-imidazo[1,2-a]pyridin-2-yl)-[4-(2-fluoro-phenyl)-3-hydroxy-piperidin-1-yl]-methanone] is lower in EC50: over 50 µM for the first, 0.0469 µM for the second. The second is the more potent here.

First: CCOC1CCN(C(=O)c2nc3c(C(F)(F)F)cc(-c4cn[nH]c4)cn3c2Cl)C1 (stereo not shown) [Compound 181, [3-Chloro-6-(1H-pyrazol-4-yl)-8-trifluoromethyl-imidazo[1,2-a]pyridin-2-yl]-(3-ethoxy-pyrrolidin-1-yl)-methanone]
Second: CCOC1CCN(C(=O)c2nc3c(C(F)(F)F)cc(-c4cn[nH]c4)cn3c2Cl)CC1 [Compound 177, [3-Chloro-6-(1H-pyrazol-4-yl)-8-trifluoromethyl-imidazo[1,2-a]pyridin-2-yl]-(4-ethoxy-piperidin-1-yl)-methanone]
The EC50 of the first is 12-fold higher: 13.5 µM for the first, 1.08 µM for the second.

Compared with `COc1cccc(NC2CCN(C(=O)c3nc4c(C(F)(F)F)cc(-c5ccoc5)cn4c3Cl)C2)c1` (stereo not shown) [Compound 178, (3-Chloro-6-furan-3-yl-8-trifluoromethyl-imidazo[1,2-a]pyridin-2-yl)-[3-(3-methoxy-phenylamino)-pyrrolidin-1-yl]-methanone], `O=C(c1nc2c(C(F)(F)F)cc(-c3nccs3)cn2c1Cl)N1CC=C(c2ncccc2F)CC1` [Compound 118, (3 -Chloro-6-thiazol-2-yl-8-trifluoromethyl-imidazo[1,2-a]pyridin-2-yl)-(3-fluoro-3′,6′-dihydro-2′H-[2,4′]bipyridinyl-1′-yl)-methanone] is 3.7-fold lower in EC50: 2.41 µM for the first, 0.655 µM for the second.

`CN(C)C(=O)CNC(=O)c1cn2cc(-c3ccoc3)cc(C(F)(F)F)c2n1` [Compound 249, 6-Furan-3-yl-8-trifluoromethyl-imidazo[1,2-a]pyridine-2-carboxylic acid dimethylcarbamoylmethyl-amide] and `O=S(=O)(NCc1cn2cc(-c3ccoc3)cc(C(F)(F)F)c2n1)C1CC1` [Compound 227, Cyclopropanesulfonic acid (6-furan-3-yl-8-trifluoromethyl-imidazo[1,2-a]pyridin-2-ylmethyl)-amide] cannot be ordered by EC50: over 50 µM for the first, over 50 µM for the second.

Work on `O=C(Cc1cn2cc(-c3ccoc3)cc(C(F)(F)F)c2n1)N1CC=C(c2nccs2)CC1` [Compound 191, 2-(6-Furan-3-yl-8-trifluoromethyl-imidazo[1,2-a]pyridin-2-yl)-1-(4-thiazol-2-yl-3,6-dihydro-2H-pyridin-1-yl)-ethanone] yielded an EC50 of over 50 µM.
